Assay results published in US5910482A (priority 1996, dated 1999).

Tests used:
pregnant rats [1] = test: Effects of L-NAME infusion on systolic blood pressure in pregnant rats; type: in vivo, rat; conditions: n = 5
Procedure: The effects of hypertensive agent L-NAME (50 mg/rat) on blood pressure were studied. […] L-NAME was infused as described in the FIG. 2.

pregnant rats [2] = test: Delivery day and pup survival after L-NAME infusion to pregnant rats; effect of CGRP on fetal survival; type: in vivo; conditions: L-NAME 50/mg/day infusion to pregnant rats; 5 animals

Structure (SMILES): COC(=O)[C@@H](N)CCCNC(=N)N[N+](=O)[O-] [L-NAME, N^G -nitro-L-arginine methyl ester]
- Systolic Blood Pressure (pregnant rats [1]; Gestational Day 17 (before infusion start on day 18), L-NAME 50 mg/day): 116 ± 3 mm Hg
- Systolic Blood Pressure (pregnant rats [1]; Gestational Day 18, L-NAME 50 mg/day infused from day 18): 137 ± 6 mm Hg
- Systolic Blood Pressure (pregnant rats [1]; Gestational Day 19, L-NAME 50 mg/day infused from day 18): 154 ± 3 mm Hg
- Systolic Blood Pressure (pregnant rats [1]; Gestational Day 22, L-NAME 50 mg/day infused from day 18): 137 ± 8 mm Hg
- Systolic Blood Pressure (pregnant rats [1]; Postpartum PP Day 1, L-NAME 50 mg/day): 145 ± 5 mm Hg
- Systolic Blood Pressure (pregnant rats [1]; Postpartum PP Day 2, L-NAME 50 mg/day): 140 ± 5 mm Hg
- # of dead pups (pregnant rats [2]): 10
- Weight of pups (pregnant rats [2]): 5.14 ± 0.07 g
